According to publication PMC5384962, “First-in-human studies of seletalisib, an orally bioavailable small-molecule PI3Kδ inhibitor for the treatment of immune and inflammatory diseases” (European Journal of Clinical Pharmacology, 2017):

Key:
[1] = Study-1 Part-B multiple ascending dose pharmacokinetics (plasma and urine); type: in vivo, human; details: for Fe(0–24) / CLss/F / Cmaxss / Ctrough / Vzss/F / AUC(0-t) / Tmax / Cmax / half-life / CL renal / Ae(0–24): Study-1 Part-B; for Fe(0–24) / CLss/F / Cmaxss / Ctrough / Vzss/F / AUC(0-t) / Cmax / half-life / CL renal / Ae(0–24): geo mean (GeoCV%); for AUC(0-t) / Tmax / Cmax / half-life / CL renal: human, oral; for AUC(0-t) / Tmax / Cmax / half-life: plasma; for AUC(0-t): read-out: AUC(0–24); for CL renal: urine and plasma; for Ae(0–24): urine
Text: (§1) These were phase I, randomised, double-blind, placebo-controlled studies designed to evaluate the safety, tolerability, PK and PD profiles of seletalisib following oral administration of single ascending doses and multiple ascending doses. Study-1 was a first-in-human, double-blind (sponsor-, investigator- and subject-blind) study that had two parts: Part-A evaluated seletalisib (single ascending doses) in healthy adults (including evaluation of food effects; Table 1); Part-B evaluated seletalisib (multiple ascending doses) in healthy adults and subjects with mild-to-moderate psoriasis. Study-2 was also a double-blind study of seletalisib (single and multiple ascending doses) in healthy subjects, which investigated higher doses.
(§2) Plasma concentrations of seletalisib were measured by high-performance liquid chromatography with tandem mass spectrometry (see Online Resource S1 for further details). The following PK parameters were determined in each study: AUC for seletalisib, maximum observed plasma concentration of seletalisib after a single dose (Cmax) and at steady-state (Cmaxss), time of occurrence of Cmax (tmax, obtained directly from the observed plasma concentration-time curves), minimum observed plasma concentration of seletalisib at steady-state immediately before the next dose would be administered (Ctrough), apparent terminal half-life, apparent volume of distribution after single dosing (Vz/F) and at steady-state (Vzss/F) and apparent total body clearance after single dosing (CL/F) and at steady-state (CLss/F). Accumulation factor based on AUC(0–24) [R(AUC)] and accumulation factor based on Cmax [R(Cmax)] were determined on multiple dose day 14. The following study-specific PK parameters were also determined: Study-1, total amount of seletalisib excreted in urine (Ae), renal clearance (CLr) and fraction of drug excreted in urine; Study-2, AUC(0–10) in BID dose groups, terminal elimination rate constant in plasma (λz), mean residence time (MRT) and linearity factor (LF [AUC(0–24)ss/AUC]).
(§3) Methods for the calculation of seletalisib PK parameters are detailed in Online Resource S1.
(§4) Seletalisib PK parameters were calculated via non-compartmental analysis methods from the individual concentration-time data using Phoenix WinNonlin version 6.2 (Certara, Princeton, NJ, USA). Urine (Study-1 only) and plasma PK parameters of seletalisib were reported for each subject and summarised by study part and dose group. Geometric mean and percentage geometric coefficient of variation (GeoCV%) were reported for all parameters except for tmax, which was reported using median and range. Dose proportionality for AUC and Cmax at Day_1 (Study-1 [Part-A & Part-B]; Study-2, single ascending dose-Day_1) and at steady state at Day_14 (Study-1 [Part-B]; Study-2, multiple ascending dose-Day_14) was examined via the power model and reported graphically. In Study-1, an assessment of food effect (fed versus fasted) was made for Cmax and AUC from the data for subjects who received the same dose in fed and fasted states in Part-A.

[2] = Study-2 multiple-dose day 14 pharmacokinetics (plasma); type: in vivo, human; details: for CLss/F / Cmaxss / Vzss/F / AUC(0-t) / MRT / half-life / LF: geo mean (GeoCV%); for AUC(0-t) / MRT / half-life / Tmax: human, plasma, oral; for LF: linearity factor AUC(0–24)ss/AUC
Text: as §1, §2, §3, §4

[3] = power model, Study-1 Part B Day 14
[4] = power model, Study-2 multiple-dose Day 14, QD groups

SMILES: [O-][n+]1cccc(-c2nc3c(Cl)cccc3cc2[C@@H](Nc2ncnc3cccnc23)C(F)(F)F)c1 [Seletalisib, seletalisib]
- geometric mean fraction of drug excreted in urine ([1]; Study-1 Part-A and Part-B, parent drug, across dose groups): ≤ 12%
- Fe(0–24) ([1]; 5 mg, Day 1): 4.02 (32.2) %
- CLss/F ([1]; 5 mg, Day 14): 1.97 (36.2) L/h
- Cmaxss ([1]; 5 mg, Day 14): 175 (29.1) ng/mL
- Ctrough ([1]; 5 mg, Day 14): 66.5 (47.3) ng/mL
- Fe(0–24) ([1]; 5 mg, Day 14): 6.80 (40.0) %
- Vzss/F ([1]; 5 mg, Day 14): 62.5 (20.0) L
- Fe(0–24) ([1]; 8 mg, Day 1): 4.24 (51.9) %
- CLss/F ([1]; 8 mg, Day 14): 1.83 (50.2) L/h
- Cmaxss ([1]; 8 mg, Day 14): 285 (41.7) ng/mL
- Ctrough ([1]; 8 mg, Day 14): 113 (67.8) ng/mL
- Fe(0–24) ([1]; 8 mg, Day 14): 7.60 (26.3) %
- Vzss/F ([1]; 8 mg, Day 14): 60.3 (40.1) L
- Fe(0–24) ([1]; 15 mg, Day 1): 5.42 (48.2) %
- CLss/F ([1]; 15 mg, Day 14): 2.75 (29.9) L/h
- Cmaxss ([1]; 15 mg, Day 14): 414 (23.0) ng/mL
- Ctrough ([1]; 15 mg, Day 14): 140 (35.0) ng/mL
- Fe(0–24) ([1]; 15 mg, Day 14): 12.0 (52.8) %
- Vzss/F ([1]; 15 mg, Day 14): 89.0 (24.9) L
- AUC(0-t) ([1]; 5 mg, 5 mg, Day 1): 1560 ng·h/mL
- Tmax ([1]; 5 mg, 5 mg, Day 1, median (range), read-out: tmax): 4.01 h
- AUC(0-t) ([1]; 5 mg, 5 mg, Day 14): 2540 ng·h/mL
- Tmax ([1]; 5 mg, 5 mg, Day 14, median (range), read-out: tmax): 3 h
- AUC(0-t) ([1]; 8 mg, 8 mg, Day 1): 2610 ng·h/mL
- Tmax ([1]; 8 mg, 8 mg, Day 1, median (range), read-out: tmax): 4 h
- AUC(0-t) ([1]; 8 mg, 8 mg, Day 14): 4370 ng·h/mL
- Tmax ([1]; 8 mg, 8 mg, Day 14, median (range), read-out: tmax): 3.5 h
- AUC(0-t) ([1]; 15 mg, 15 mg, Day 1): 3940 ng·h/mL
- Tmax ([1]; 15 mg, 15 mg, Day 1, median (range), read-out: tmax): 3.01 h
- AUC(0-t) ([1]; 15 mg, 15 mg, Day 14): 5460 ng·h/mL
- Tmax ([1]; 15 mg, 15 mg, Day 14, median (range), read-out: tmax): 3 h
- Tmax ([1]; day 1, fed, range across groups, read-out: time to peak plasma concentration): 3.01 to 4.01 h
- Tmax ([1]; day 14, fed, range across groups, read-out: time to peak plasma concentration): 3 to 3.5 h
- Cmax ([1]; 5 mg, Day 1): 122 ng/mL
- half-life ([1]; 5 mg, Day 14): 22 h
- Cmax ([1]; 8 mg, Day 1): 201 ng/mL
- half-life ([1]; 8 mg, Day 14): 22.8 h
- Cmax ([1]; 15 mg, Day 1): 322 ng/mL
- half-life ([1]; 15 mg, Day 14): 22.5 h
- CL renal ([1]; 5 mg, 5 mg, Day 1): 2.15 mL/min
- CL renal ([1]; 5 mg, 5 mg, Day 14): 2.23 mL/min
- CL renal ([1]; 8 mg, 8 mg, Day 1): 2.17 mL/min
- CL renal ([1]; 8 mg, 8 mg, Day 14): 2.32 mL/min
- CL renal ([1]; 15 mg, 15 mg, Day 1): 3.43 mL/min
- CL renal ([1]; 15 mg, 15 mg, Day 14): 5.48 mL/min
- Dose proportionality of Cmaxss (ng/mL): Dose (beta), Estimate [1, 3]: 0.78
- Dose proportionality of Cmaxss (ng/mL): Intercept, Estimate [1, 3]: 3.95
- Ae(0–24) ([1]; 5 mg, Day 1): 0.201 (32.2) mg
- Ae(0–24) ([1]; 5 mg, Day 14): 0.340 (40.0) mg
- Ae(0–24) ([1]; 8 mg, Day 1): 0.340 (51.9) mg
- Ae(0–24) ([1]; 8 mg, Day 14): 0.608 (26.3) mg
- Ae(0–24) ([1]; 15 mg, Day 1): 0.812 (48.2) mg
- Ae(0–24) ([1]; 15 mg, Day 14): 1.80 (52.8) mg
- CLss/F ([2]; Study-2, 30 mg QD, Day 14): 2.13 (39.1) L/h
- Cmaxss ([2]; Study-2, 30 mg QD, Day 14): 897.8 (35.4) ng/mL
- Vzss/F ([2]; Study-2, 30 mg QD, Day 14): 64.8 (24.2) L
- CLss/F ([2]; Study-2, 45 mg QD, Day 14): 2.65 (36.9) L/h
- Cmaxss ([2]; Study-2, 45 mg QD, Day 14): 1114 (27.7) ng/mL
- Vzss/F ([2]; Study-2, 45 mg QD, Day 14): 74.5 (27.9) L
- CLss/F ([2]; Study-2, 60 mg QD, Day 14): 2.00 (32.5) L/h
- Cmaxss ([2]; Study-2, 60 mg QD, Day 14): 1957 (30.2) ng/mL
- Vzss/F ([2]; Study-2, 60 mg QD, Day 14): 56.7 (33.3) L
- CLss/F ([2]; Study-2, 90 mg QD, Day 14): 2.33 (19.7) L/h
- Cmaxss ([2]; Study-2, 90 mg QD, Day 14): 2355 (17.8) ng/mL
- Vzss/F ([2]; Study-2, 90 mg QD, Day 14): 68.0 (23.9) L
- AUC(0-t) ([2]; 30 mg, Study-2, 30 mg BID, Day 14, read-out: AUC(0–10)): 10600 ng·h/mL
- AUC(0-t) ([2]; 30 mg, Study-2, 30 mg QD, Day 14, read-out: AUC(0–24)): 14100 ng·h/mL
- AUC(0-t) ([2]; 30 mg, Study-2, 30 mg QD, Day 14, read-out: AUC(0–t)): 24900 ng·h/mL
- AUC(0-t) ([2]; 45 mg, Study-2, 45 mg QD, Day 14, read-out: AUC(0–24)): 17000 ng·h/mL
- AUC(0-t) ([2]; 45 mg, Study-2, 45 mg QD, Day 14, read-out: AUC(0–t)): 30100 ng·h/mL
- AUC(0-t) ([2]; 60 mg, Study-2, 60 mg QD, Day 14, read-out: AUC(0–24)): 30000 ng·h/mL
- AUC(0-t) ([2]; 60 mg, Study-2, 60 mg QD, Day 14, read-out: AUC(0–t)): 51600 ng·h/mL
- AUC(0-t) ([2]; 90 mg, Study-2, 90 mg QD, Day 14, read-out: AUC(0–24)): 38600 ng·h/mL
- AUC(0-t) ([2]; 90 mg, Study-2, 90 mg QD, Day 14, read-out: AUC(0–t)): 67600 ng·h/mL
- MRT ([2]; Study-2, 30 mg QD, Day 14): 24.9 h
- half-life ([2]; Study-2, 30 mg QD, Day 14): 24.6 h
- Tmax ([2]; Study-2, 30 mg QD, Day 14, median (range), read-out: tmax): 4 h
- MRT ([2]; Study-2, 45 mg QD, Day 14): 25.1 h
- half-life ([2]; Study-2, 45 mg QD, Day 14): 28.5 h
- Tmax ([2]; Study-2, 45 mg QD, Day 14, median (range), read-out: tmax): 4 h
- MRT ([2]; Study-2, 60 mg QD, Day 14): 24.2 h
- half-life ([2]; Study-2, 60 mg QD, Day 14): 24.6 h
- Tmax ([2]; Study-2, 60 mg QD, Day 14, median (range), read-out: tmax): 3.5 h
- MRT ([2]; Study-2, 90 mg QD, Day 14): 24.7 h
- half-life ([2]; Study-2, 90 mg QD, Day 14): 24.6 h
- Tmax ([2]; Study-2, 90 mg QD, Day 14, median (range), read-out: tmax): 4 h
- Tmax ([2]; Study-2, day 14, fed, range across groups, read-out: time to peak plasma concentration): 3.5 to 4 h
- LF ([2]; Study-2, 30 mg QD, Day 14): 1.275 (16.7)
- LF ([2]; Study-2, 45 mg QD, Day 14): 1.028 (26.4)
- LF ([2]; Study-2, 60 mg QD, Day 14): 1.160 (31.8)
- LF ([2]; Study-2, 90 mg QD, Day 14): 1.127 (25.9)
- Dose proportionality of Cmaxss (ng/mL): Dose (beta), Estimate [2, 4]: 0.96
- Dose proportionality of Cmaxss (ng/mL): Intercept, Estimate [2, 4]: 3.52
